Test results reported in US6114334A, “Piperazine derivatives as therapeutic agents” (Knoll Aktiengesellschaft, priority 1995, dated 2000).

How the values were obtained:
[1] = biological target: T1, 5-HT1A receptors (Rattus norvegicus, UniProt P19327); experiment: inhibition of [3H]8-OH-DPAT binding to 5-HT1A receptors in vitro; set-up: species or system rat (male Sprague-Dawley, hippocampal tissue); conditions: rat hippocampus; for Ki: [3H]8-OH-DPAT 2 nM, 25° C., 30 min
T1 sequence (P19327 1-422): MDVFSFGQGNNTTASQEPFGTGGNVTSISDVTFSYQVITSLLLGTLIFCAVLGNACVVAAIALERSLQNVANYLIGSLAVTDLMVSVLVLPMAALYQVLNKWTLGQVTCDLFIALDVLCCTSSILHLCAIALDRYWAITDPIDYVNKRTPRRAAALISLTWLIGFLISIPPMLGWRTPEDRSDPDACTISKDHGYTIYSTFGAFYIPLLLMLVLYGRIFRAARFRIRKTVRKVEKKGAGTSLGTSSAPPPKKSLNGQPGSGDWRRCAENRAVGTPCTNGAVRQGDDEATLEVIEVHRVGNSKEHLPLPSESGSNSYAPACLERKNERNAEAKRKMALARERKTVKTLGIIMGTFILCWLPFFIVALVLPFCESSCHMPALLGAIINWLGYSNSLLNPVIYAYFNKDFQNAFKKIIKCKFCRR
Protocol: Hippocampal tissue from the brains of male Sprague-Dawley rats (Charles River; weight range 150-250 g) was homogenised in ice-cold 50 mM Tris-HCl buffer (pH 7.7 when measured at 25° C., 1:40 w/v) and centrifuged at 30,000 g at 4° C. for 10 minutes. The pellet was rehomogenised in the same buffer, incubated at 37° C. for 10 minutes and centrifuged at 30,000 g at 4° C. for 10 minutes. The final pellet was resuspended in 50 mM Tris-HCl buffer (pH 7.7) containing 4 mM CaCl2. 0.1% L-ascorbic acid and 10 μM pargyline hydrochloride (equivalent to 6.25 mg wet weight of tissue/ml) and used immediately in the binding assay. Aliquots (400 μl; equivalent to 2.5 mg wet weight of tissue/tube) of this suspension were added to tubes containing the ligand (50 μl; 2 nM) and distilled water (50 μl; total binding) or 5-HT (50 μl; 10 μM; non-specific binding) or test compound (50 μl; at a single concentration of 10^-6 M or at 10 concentrations ranging from 10^-11 -10^-3 M). The ligand was [^3 H]8-hydroxy-2-(dipropylamino)tetralin ([^3 H]8-OH-DPAT) and the mixture was incubated at 25° C. for 30 minutes before the incubation was terminated by rapid filtration.

[2] = biological target: D2 dopamine receptors (Rattus norvegicus, UniProt P61169); experiment: inhibition of tritiated (S)-sulpiride binding to D2 dopamine receptors in vitro; set-up: species or system rat (male Charles River CD, striatal tissue); conditions: rat striatum, tritiated (S)-sulpiride 1 nM, 4° C., 40 min
D2 dopamine receptors, sequence (P61169 whole entry): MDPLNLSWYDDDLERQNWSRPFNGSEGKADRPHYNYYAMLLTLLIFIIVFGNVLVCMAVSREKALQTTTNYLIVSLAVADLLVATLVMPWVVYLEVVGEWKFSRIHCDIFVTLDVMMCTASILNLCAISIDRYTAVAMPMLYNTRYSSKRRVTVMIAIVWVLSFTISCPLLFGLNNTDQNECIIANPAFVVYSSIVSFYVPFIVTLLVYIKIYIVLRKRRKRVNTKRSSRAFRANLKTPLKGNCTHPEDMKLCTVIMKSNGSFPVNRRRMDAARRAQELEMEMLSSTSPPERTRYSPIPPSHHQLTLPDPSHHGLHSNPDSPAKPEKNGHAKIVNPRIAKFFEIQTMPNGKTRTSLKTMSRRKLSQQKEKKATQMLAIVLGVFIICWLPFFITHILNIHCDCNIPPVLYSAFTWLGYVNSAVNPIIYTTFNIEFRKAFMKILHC

[3] = biological target: α1-adrenoceptors; experiment: inhibition of 7-methoxy-[3H]prazosin binding to α1-adrenoceptors in vitro; set-up: species or system rat (male Charles River CD, whole cortical tissue); conditions: rat whole cortex, 30 min; for Ki: 7-methoxy-[3H]prazosin 0.1 nM, 30° C.
Method in brief: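 Male CD rat cortical membranes in 50 mM Tris-HCl pH 7.6 were incubated 30 min at 30 °C with 7-methoxy-[3H]prazosin (0.1 nM as added), with 5 μM phentolamine (as added) defining non-specific binding, then filtered and counted. Compounds were tested at 10^-6 M for % displacement or at 10^-11–10^-3 M for IC50, and Ki was derived from IC50, ligand concentration and KD.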

[4] = biological target: T2, α2D-adrenoceptors (Rattus norvegicus, UniProt P22909); experiment: inhibition of tritiated idazoxan binding to α2D-adrenoceptors in vitro; set-up: species or system rat (male Charles River CD, frontal cortical tissue); conditions: rat frontal cortex; for Ki: [3H]idazoxan 1 nM, 0° C., 75 min
T2 sequence (P22909 1-465): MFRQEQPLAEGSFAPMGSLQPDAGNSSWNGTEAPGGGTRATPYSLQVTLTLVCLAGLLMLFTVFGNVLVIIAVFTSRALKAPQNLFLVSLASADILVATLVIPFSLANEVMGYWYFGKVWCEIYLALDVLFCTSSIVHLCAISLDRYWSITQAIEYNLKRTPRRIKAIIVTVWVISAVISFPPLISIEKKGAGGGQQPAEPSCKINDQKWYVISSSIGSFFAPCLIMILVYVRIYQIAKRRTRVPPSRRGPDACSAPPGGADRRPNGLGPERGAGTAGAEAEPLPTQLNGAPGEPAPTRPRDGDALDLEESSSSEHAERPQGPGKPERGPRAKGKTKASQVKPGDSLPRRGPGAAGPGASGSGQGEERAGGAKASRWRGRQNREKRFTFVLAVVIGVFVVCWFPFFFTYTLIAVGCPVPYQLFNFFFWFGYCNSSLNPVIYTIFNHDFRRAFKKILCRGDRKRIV

[5] = biological target: T3, α2A-adrenoceptors (Homo sapiens, UniProt P08913); experiment: inhibition of tritiated RX 821002 binding to α2A-adrenoceptors in vitro; set-up: species or system human (cerebral cortex post-mortem); conditions: human cerebral cortex; for inhibition at 1 µM: 10^-6 M, [3H]RX 821002, read-out: % displacement at 10^-6 M, α2A; for Ki: [3H]RX 821002 0.2 nM, 0° C., 75 min
T3 construct: Human cerebral cortex obtained at post-mortem; from tissue; host or cells: human cerebral cortex, post-mortem
T3 sequence (P08913 1-465): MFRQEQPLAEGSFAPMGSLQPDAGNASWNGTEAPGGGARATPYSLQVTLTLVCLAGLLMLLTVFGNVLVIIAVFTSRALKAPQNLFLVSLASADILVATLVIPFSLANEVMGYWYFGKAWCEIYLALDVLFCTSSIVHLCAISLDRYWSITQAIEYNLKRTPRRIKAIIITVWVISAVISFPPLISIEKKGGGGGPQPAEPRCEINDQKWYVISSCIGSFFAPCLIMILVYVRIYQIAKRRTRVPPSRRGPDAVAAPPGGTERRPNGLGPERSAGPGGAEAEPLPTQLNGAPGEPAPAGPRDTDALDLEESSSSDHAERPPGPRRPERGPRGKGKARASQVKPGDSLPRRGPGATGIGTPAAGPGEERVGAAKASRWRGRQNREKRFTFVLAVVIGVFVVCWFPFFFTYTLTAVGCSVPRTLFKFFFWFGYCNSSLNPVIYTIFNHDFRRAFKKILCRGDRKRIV
Protocol: Human cerebral cortex obtained at post-mortem was homogenised in ice-cold 0.25M sucrose (1:30 w/v) and centrifuged at 1,000 g at 4° C. for 12 minutes. The supernatant was stored on ice and the pellet was rehomogenised in 0.25M sucrose (1:15 w/v) and centrifuged at 850 g at 4° C. for 12 minutes. Combined supernatants were diluted with 5 mM Tris-HCl (pH 7.5) containing 5 mM ethylenediamine tetraacetic acid (EDTA), readjusted to pH 7.5 (at 25° C.) with 1M sodium hydroxide to 1:80 w/v, and centrifuged at 11,000 g at 4° C. for 10 minutes. The resulting pellet was resuspended in 50 mM Tris-HCl (pH 7.5) containing 5.68 mM L-ascorbic acid and 0.5 mM EDTA, readjusted to pH 7.5 (at 25° C.) with 1M sodium hydroxide to 1:80 w/v, and centrifuged at 11,000 g for 10 minutes. The pellet was stored at -80° C. On the day of the assay the pellet was thawed, resuspended in 50 mM Tris-HCl (pH 7.5) containing 5.68 mM L-ascorbic acid and 5 mM EDTA to 1:80 w/v and centrifuged at 11,000 g for 10 minutes. The final pellet was resuspended in 50 mM Tris-HCl (pH 7.5) containing 5.68 mM L-ascorbic acid and 5 mM EDTA (equivalent to 25 mg wet weight of tissue/ml).
Aliquots (400 μl; equivalent to 10 mg wet weight of tissue/tube) of this suspension were added to tubes containing the ligand (50 μl; 0.2 nM) and distilled water (50 μl; total binding) or phentolamine (50 μl; 50 μM; non-specific binding) or test compound (50 μl; at a single concentration of 10^-6 M or at 10 concentrations ranging from 10^-11 -10^-3 M). The ligand was tritiated RX 821002 (2-(2-methoxy-1,4-[6,7(n)-^3 H]benzodioxan-2-yl)-2-imidazoline) and the mixture was incubated at 0° C. for 75 minutes before the incubation was terminated by rapid filtration.
The filters were washed with ice-cold Tris-HCl buffer and dried. The filters were punched out into vials, scintillation fluid added and radioactivity determined by liquid scintillation counting. The percentage displacement of specific binding of the tritiated ligand was calculated for the single concentration (10^-6 M) of test compound. Displacement curves were then produced for those compounds which displaced ≥50% of specific binding of the tritiated ligand at 10^-6 M using a range of concentrations of the compound. The concentration which gave 50% inhibition of specific binding (IC50) was obtained from the curve. The inhibition coefficient Ki was then calculated using the formula [formula] in which [ligand] is the concentration of the tritiated ligand used and KD is the equilibrium dissociation constant for the ligand.

Structure (SMILES)	Ki [1] [nM]	Ki [2] [nM]	Ki [3] [nM]	Ki [4] [nM]	inhibition at 1 µM [5] [%]	inhibition at 1 µM ([1]; 10^-6 M, [3H]8-OH-DPAT, read-out: % displacement at 10^-6 M, 5-HT1A) [%]	% displacement at 10^-6 M, α1 ([3]; 10^-6 M, 7-methoxy-[3H]prazosin, 1 µM) [%]	inhibition at 1 µM ([4]; 10^-6 M, [3H]idazoxan, read-out: % displacement at 10^-6 M, α2D) [%]	Ki [5] [nM]
Cn1nc(-c2ccccc2)c(CN2CCN(c3cccc4c3OCCO4)CC2)c1N [Example 13, 5-Amino-4-[4-(1,4-benzodioxan-5-yl)piperazin-1-ylmethyl]-1-methyl-3-phenylpyrazole]	21	> 500	57	156	95				
Nc1c(CN2CCN(c3cccc(Cl)c3)CC2)c(C2CC2)nn1-c1ccccc1 [Example 14, 5-Amino-4-[4-(3-chlorophenyl)piperazin-1-ylmethyl]-3-cyclopropyl-1-phenylpyrazole]		> 500			99	74	80	81	
Nc1c(CN2CCN(c3cccc4c3OCCO4)CC2)c(C2CC2)nn1-c1ccccn1 [Example 16, 5-Amino-4-[4-(1,4-benzodioxan-5-yl)piperazin-1-ylmethyl]-3-cyclopropyl-1-(2-pyridyl)pyrazole]	4.1	85	35	9.7	100				
COc1ccc(-n2nc(C3CC3)c(CN3CCN(c4cccc5c4OCCO5)CC3)c2N)cc1 [Example 17, 5-Amino-4-[4-(1,4-benzodioxan-5-yl)piperazin-1-ylmethyl]-3-cyclopropyl-1-(4-methoxyphenyl)pyrazole]	59	> 500	27	61	86				
Cc1ccccc1N1CCN(Cc2c(C3CC3)nn(-c3ccccc3)c2N)CC1 [Example 19, 5-Amino-3-cyclopropyl-4-[4-(2-methylphenyl)piperazin-1-ylmethyl]-1-phenylpyrazole]	256	> 500	38	4.9	100				
Nc1c(CN2CCN(c3cccc4c3OCCO4)CC2)c(C2CC2)nn1-c1ccc(Cl)cc1 [Example 20, 5-Amino-4-[4-(1,4-benzodioxan-5-yl)piperazin-1-ylmethyl]-1-(4-chlorophenyl)-3-cyclopropylpyrazole]	61	445	19	15	89				
Nc1c(CN2CCN(c3cccc4c3OCCO4)CC2)c(C2CCCC2)nn1-c1ccccc1 [Example 21, 5-Amino-4-[4-(1,4-benzodioxan-5-yl)piperazin-1-ylmethyl]-3-cyclopentyl-1-phenylpyrazole]	58	451	21	32	89				
CC(C)(C)c1nn(-c2ccccc2)c(N)c1CN1CCN(c2cccc3c2OCCO3)CC1 [Example 22, 5-Amino-4-[4-(1,4-benzodioxan-5-yl)piperazin-1-ylmethyl]-3-tert-butyl-1-phenylpyrazole]	29	> 500	> 500	> 500	66				
CC(C)Oc1ccccc1N1CCN(Cc2c(C3CC3)nn(-c3ccccc3)c2N)CC1 [Example 23, 5-Amino-3-cyclopropyl-4-[4-(2-isopropoxyphenyl)piperazin-1-ylmethyl]-1-phenylpyrazole]	22	109	17	1.7	100				
CC(C)(C)n1nc(C2CC2)c(CN2CCN(c3cccc4c3OCCO4)CC2)c1N [Example 24, 5-Amino-4-[4-(1,4-benzodioxan-5-yl)piperazin-1-ylmethyl]-1-tert-butyl-3-cyclopropylpyrazole]	21	422	177	13					39
Cn1nc(C2CC2)c(CN2CCN(c3cccc4c3OCCO4)CC2)c1N [Example 25, 5-Amino-4-[4-(1,4-benzodioxan-5-yl)piperazin-1-ylmethyl]-3-cyclopropyl-1-methylpyrazole]	15	> 500	126	35					14
